{
  "source": "paper PMC4118284",
  "about": "(Leukemia, 2012)",
  "key": {"[1]": {"assay": "Plasma concentrations of midostaurin and metabolites"}, "FLT3": {"test_system": "FLT3", "conditions": "cited from earlier work"}, "[2]": {"conditions": "Concomitant (days 1-7 and 15-21), 50 mg BID, Induction cycle 1, day 1"}, "[3]": {"conditions": "Concomitant, 50 mg BID, First consolidation cycle, day 15.5"}, "[4]": {"conditions": "Concomitant, 50 mg BID, Induction cycle 1, Day 1 (+ 2 h)"}, "[5]": {"conditions": "Concomitant, 50 mg BID, Induction cycle 1, Day 1 (+ 4 h)"}, "[6]": {"conditions": "Concomitant, 50 mg BID, Induction cycle 1, day 2"}, "[7]": {"conditions": "Concomitant, 50 mg BID, Induction cycle 1, day 4"}, "[8]": {"conditions": "Concomitant, 50 mg BID, Induction cycle 1, day 15 (+ 2 h)"}, "[9]": {"conditions": "Concomitant, 50 mg BID, Induction cycle 1, day 15 (+ 4 h)"}, "[10]": {"conditions": "Sequential (days 8-21), 50 mg BID, Induction cycle 1, day 8"}, "[11]": {"conditions": "Sequential, 50 mg BID, First consolidation cycle, day 1.5"}, "[12]": {"conditions": "Sequential, 50 mg BID, First consolidation cycle, day 15.5"}, "[13]": {"conditions": "Sequential, 50 mg BID, First consolidation cycle, day 29.5"}, "[14]": {"conditions": "Sequential, 50 mg BID, Induction cycle 1, day 8 (+ 2 h)"}, "[15]": {"conditions": "Sequential, 50 mg BID, Induction cycle 1, day 8 (+ 4 h)"}, "[16]": {"conditions": "Sequential, 50 mg BID, Induction cycle 1, day 9"}, "[17]": {"conditions": "Sequential, 50 mg BID, Induction cycle 1, day 15"}, "[18]": {"conditions": "Sequential, 50 mg BID, Induction cycle 1, day 22.5"}, "[19]": {"conditions": "Sequential, 50 mg BID, Induction cycle 1, day 29.5"}},
  "note": "Several values for one entry are separate records, joined by “and”; a condition that tells them apart may be missing. Identical values can stand only once.",
  "data": [
    {"smiles": "CO[C@@H]1[C@H](N(C)C(=O)c2ccccc2)C[C@H]2O[C@]1(C)n1c3ccccc3c3c4c(c5c6ccccc6n2c5c31)C(=O)N[C@H]4O", "note": "[CGP52421]", "values": [
      {"measurement": "Plasma concentration, Max", "setting": "[1]; [2]", "result": "LLOQ"},
      {"measurement": "Plasma concentration, Median", "setting": "[1]; [2]", "result": "LLOQ"},
      {"measurement": "Plasma concentration, Min", "setting": "[1]; [2]", "result": "LLOQ"},
      {"measurement": "Plasma concentration, Max", "setting": "[1]; [3]", "result": 810, "unit": "ng/mL"},
      {"measurement": "Plasma concentration, Min", "setting": "[1]; [3]", "result": 810, "unit": "ng/mL"},
      {"measurement": "Plasma concentration, individual values (n = 2; merged Median/Min/Max cell)", "setting": "[1]; Concomitant, 50 mg BID, First consolidation cycle, day 29.5", "result": "809 ng/mL and 2990 ng/mL"},
      {"measurement": "Plasma concentration, Max", "setting": "[1]; [4]", "result": 812, "unit": "ng/mL"},
      {"measurement": "Plasma concentration, Median", "setting": "[1]; [4]", "result": 170, "unit": "ng/mL"},
      {"measurement": "Plasma concentration, Min", "setting": "[1]; [4]", "result": 52.9, "unit": "ng/mL"},
      {"measurement": "Plasma concentration, Max", "setting": "[1]; [5]", "result": 209, "unit": "ng/mL"},
      {"measurement": "Plasma concentration, Median", "setting": "[1]; [5]", "result": 137, "unit": "ng/mL"},
      {"measurement": "Plasma concentration, Min", "setting": "[1]; [5]", "result": 115, "unit": "ng/mL"},
      {"measurement": "Plasma concentration, Max", "setting": "[1]; [6]", "result": 460, "unit": "ng/mL"},
      {"measurement": "Plasma concentration, Median", "setting": "[1]; [6]", "result": 361, "unit": "ng/mL"},
      {"measurement": "Plasma concentration, Min", "setting": "[1]; [6]", "result": 228, "unit": "ng/mL"},
      {"measurement": "Plasma concentration, Max", "setting": "[1]; [7]", "result": 1090, "unit": "ng/mL"},
      {"measurement": "Plasma concentration, Median", "setting": "[1]; [7]", "result": 832, "unit": "ng/mL"},
      {"measurement": "Plasma concentration, Min", "setting": "[1]; [7]", "result": 570, "unit": "ng/mL"},
      {"measurement": "Plasma concentration, Max", "setting": "[1]; [8]", "result": 1920, "unit": "ng/mL"},
      {"measurement": "Plasma concentration, Median", "setting": "[1]; [8]", "result": 1170, "unit": "ng/mL"},
      {"measurement": "Plasma concentration, Min", "setting": "[1]; [8]", "result": 814, "unit": "ng/mL"},
      {"measurement": "Plasma concentration, Max", "setting": "[1]; [9]", "result": 1860, "unit": "ng/mL"},
      {"measurement": "Plasma concentration, Median", "setting": "[1]; [9]", "result": 1465, "unit": "ng/mL"},
      {"measurement": "Plasma concentration, Min", "setting": "[1]; [9]", "result": 893, "unit": "ng/mL"},
      {"measurement": "Plasma concentration, Max", "setting": "[1]; [10]", "result": "LLOQ"},
      {"measurement": "Plasma concentration, Median", "setting": "[1]; [10]", "result": "LLOQ"},
      {"measurement": "Plasma concentration, Min", "setting": "[1]; [10]", "result": "LLOQ"},
      {"measurement": "Plasma concentration, Max", "setting": "[1]; [11]", "result": 3110, "unit": "ng/mL"},
      {"measurement": "Plasma concentration, Median", "setting": "[1]; [11]", "result": 1740, "unit": "ng/mL"},
      {"measurement": "Plasma concentration, Min", "setting": "[1]; [11]", "result": 835, "unit": "ng/mL"},
      {"measurement": "Plasma concentration, Max", "setting": "[1]; [12]", "result": 4210, "unit": "ng/mL"},
      {"measurement": "Plasma concentration, Median", "setting": "[1]; [12]", "result": 2685, "unit": "ng/mL"},
      {"measurement": "Plasma concentration, Min", "setting": "[1]; [12]", "result": 1490, "unit": "ng/mL"},
      {"measurement": "Plasma concentration, Max", "setting": "[1]; [13]", "result": 5320, "unit": "ng/mL"},
      {"measurement": "Plasma concentration, Median", "setting": "[1]; [13]", "result": 2230, "unit": "ng/mL"},
      {"measurement": "Plasma concentration, Min", "setting": "[1]; [13]", "result": 1440, "unit": "ng/mL"},
      {"measurement": "Plasma concentration, Max", "setting": "[1]; [14]", "result": 194, "unit": "ng/mL"},
      {"measurement": "Plasma concentration, Median", "setting": "[1]; [14]", "result": 70.8, "unit": "ng/mL"},
      {"measurement": "Plasma concentration, Min", "setting": "[1]; [14]", "result": 35.9, "unit": "ng/mL"},
      {"measurement": "Plasma concentration, Max", "setting": "[1]; [15]", "result": 207, "unit": "ng/mL"},
      {"measurement": "Plasma concentration, Median", "setting": "[1]; [15]", "result": 113, "unit": "ng/mL"},
      {"measurement": "Plasma concentration, Min", "setting": "[1]; [15]", "result": 58.2, "unit": "ng/mL"},
      {"measurement": "Plasma concentration, Max", "setting": "[1]; [16]", "result": 414, "unit": "ng/mL"},
      {"measurement": "Plasma concentration, Median", "setting": "[1]; [16]", "result": 293, "unit": "ng/mL"},
      {"measurement": "Plasma concentration, Min", "setting": "[1]; [16]", "result": 145, "unit": "ng/mL"},
      {"measurement": "Plasma concentration, Max", "setting": "[1]; [17]", "result": 1670, "unit": "ng/mL"},
      {"measurement": "Plasma concentration, Median", "setting": "[1]; [17]", "result": 1460, "unit": "ng/mL"},
      {"measurement": "Plasma concentration, Min", "setting": "[1]; [17]", "result": 903, "unit": "ng/mL"},
      {"measurement": "Plasma concentration, Max", "setting": "[1]; [18]", "result": 3540, "unit": "ng/mL"},
      {"measurement": "Plasma concentration, Median", "setting": "[1]; [18]", "result": 2800, "unit": "ng/mL"},
      {"measurement": "Plasma concentration, Min", "setting": "[1]; [18]", "result": 1630, "unit": "ng/mL"},
      {"measurement": "Plasma concentration, Max", "setting": "[1]; [19]", "result": 3330, "unit": "ng/mL"},
      {"measurement": "Plasma concentration, Median", "setting": "[1]; [19]", "result": 1955, "unit": "ng/mL"},
      {"measurement": "Plasma concentration, Min", "setting": "[1]; [19]", "result": 1350, "unit": "ng/mL"},
      {"measurement": "Half-life (qualitative)", "setting": "[1]; midostaurin 50 mg twice daily, stable levels between dosing treatment phases", "result": "long half-life"},
      {"measurement": "Inhibition of FLT3 in vitro", "setting": "FLT3", "result": "capable of inhibiting FLT3 in vitro"}
    ]}
  ]
}
